According to patent publication US20160281125A1, “ANTIMICROBIAL COMPOUND SUSCEPTIBILITY TEST” (priority 2013, published 2016):

What was measured:
[1] = system: K. pneumoniae strain 13882; experiment: Carbapenem test, Triton fixation buffer and BacUni QuickFISH staining (Example 4); type: cell-based; conditions: FIG. 10; K. pneumoniae 13882; 10 μg/ml
Experimental: (§1) An isolated colony from an overnight Tryptocase Soy Agar (TSA) plate for each bacteria was suspended in 1 ml Tryptocase Soy Broth (TSB) in a 5 ml BD polystyrene round bottom tube. TSB cultures were incubated at 37° C. for 1.5 hours shaking. […] of each stationary-phase culture were transferred to 2 ml Eppendorf microcentrifuge tubes containing 500 μl of Normal Saline (BD); or 500 μl Normal Saline with imipenem, ertapenem, or meropenem at a concentration of […], […], or 40 μg/ml (26.67 μg/ml final concentration). Tubes were inverted then incubated at 37° C. stagnant for thirty minutes. Then 10 μl from each tube was pipetted onto plain glass slide on a 55° C. heat block, followed by 25 μl fixation buffer (0.5% T×100, 100 mM Tris pH 9, 24% Ethanol, and 10 mM NaCl); slide is incubated until sample is dry. Ten μl of BacUni QuickFISH hybridization buffer was added to each slide followed by a 22×22 mm coverslip. The slide was then incubated at 55° C. for 15 minutes. The slides were viewed on a fluorescence microscope 60× oil immersion on Dual TxR/FITC. Images were taken with a 1 second exposure.
(§2) The control fixation in this experiment has all the same components, except no Triton X-100. This was done to assess whether the selective lysis step is required to resolve a difference between susceptible and resistant bacteria.

E. coli strain 35218 = experiment: as above; type: cell-based; conditions: FIG. 9; E. coli 35218; 10 μg/ml
Experimental: as §1, §2

[2] = system: K. pneumoniae strain BAA2146 NDM+; experiment: as above; type: cell-based; conditions: FIG. 11, 10 μg/ml
Experimental: as §1, §2

[3] = system: class D beta-lactamase Enterobacteriaceae; experiment: Lysis test on simulated blood cultures vs CLSI disk diffusion (Example 9); type: cell-based; conditions: the one Class D strain incorrect with ertapenem; cut-off ≦30% resistant
Experimental: In this example, isolates tested include strains with and without carbapenemases. From fresh blood agar plates, three colonies per strain were used to inoculate blood culture media containing human blood and grown overnight at 37° C. with shaking, producing a simulated blood culture. Cultures were then diluted 1:10 into broth medium and grown for an additional hour at 37° C. with shaking. For each strain, four 250 μL aliquots were added into four separate 2 mL Eppendorf microcentrifuge tubes. […] Tubes were vortexed to resuspend the pellet completely, and then OD600 measurement was taken and the percent change, or percent lysis, between the control and antibiotic tubes was calculated (percent change=[control OD−antibiotic OD]/control OD). Results were then compared to the susceptibility of the strains, determined using the Clinical and Laboratory Standards Institute (CLSI) methods for disk diffusion. […]
Of note, if a strain was determined to be intermediate to a drug by the disk diffusion method using CLSI breakpoints, it was expected to correlate to the resistant answer by the method of the invention. […] With this consideration, it is preferable that intermediate strains are conservatively scored as resistant to prevent possible treatment failure. […]

[4] = system: K. pneumo BAA-2146 (NDM1); experiment: Selective lysis test, OD600, meropenem and cefotaxime (Example 2); type: cell-based, K. pneumoniae
Experimental: (§3) In this experiment the following strains were tested: strain K. pneumoniae 13882 (previously considered meropenem sensitive and cefotaxime sensitive); E. coli BAA-197 (ESBL) (which expresses an extended-spectrum (beta)-lactamase enzyme and was previously considered meropenem sensitive and cefotaxime resistant); K. pneumoniae BAA-1705 (KPC) (which expresses a carbapenemase enzyme and was previously considered meropenem resistant and cefotaxime resistant); and K. pneumoniae BAA-2146 (NDM1) (which expresses the metallo-beta-lactamase-1 enzyme and was previously considered meropenem resistant and cefotaxime resistant).
(§4) An isolated colony from an overnight Tryptocase Soy Agar (TSA) plate of each bacteria was suspended in 1 ml Tryptocase Soy Broth (TSB) in a 5 ml BD polystyrene round bottom tube. TSB cultures were incubated at 37° C. for 1.5 hours shaking. Three 250 μl aliquots of each stationary-phase culture were then transferred to three 2 ml Eppendorf microcentrifuge tubes. One tube contained 500 μl of Normal Saline (BD); the second tube contained 500 μl Normal Saline with meropenem at 10 μg/ml; and the third tube contained 500 μl Normal Saline with cefotaxime (abbreviated […]) at 10 μg/ml. Tubes were inverted then incubated at 37° C. stagnant for thirty minutes. Then […] of lysis buffer (0.5% SDS in PSB) was added to each tube and each tube was vortexed for 5 seconds. Post incubation, all tubes were spun at 10000 G for 5 minutes. Supernatant was decanted and the pellet resuspended in Normal Saline. Tubes were vortexed. OD600 was measured using Eppendorf uvettes in a spectrophotometer. The delta between the control and the meropenem normal saline, or the control and the cefotaxime normal saline was used to determine susceptibility.

K. pneumo BAA-1705 (KPC) = experiment: as above; type: cell-based, K. pneumoniae
Experimental: as §3, §4

K. pneumo 13882 = experiment: as above; type: cell-based, K. pneumoniae
Experimental: as §3, §4

E. coli BAA-197 (ESBL) = experiment: as above; type: cell-based
Experimental: as §3, §4

| Structure (SMILES) | test result (susceptibility or resistance) by BacUni QuickFISH staining [1] | test result (susceptibility or resistance) by BacUni QuickFISH staining (E. coli strain 35218) | test result (susceptibility or resistance) by BacUni QuickFISH staining [2] | lysis (percent change of OD600) [3] | % diff ([4]; K. pneumo BAA-2146 (NDM1), OD600 vs control) | OD600 ([4]; K. pneumo BAA-2146 (NDM1), antibiotic 10 μg/ml, 30 min, SDS lysis buffer + vortex, 1.5 h culture) | assay score (sensitive or resistant) ([4]; K. pneumoniae BAA-2146 (NDM1)) | % diff (K. pneumo BAA-1705 (KPC); K. pneumo BAA-1705 (KPC), OD600 vs control) | OD600 (K. pneumo BAA-1705 (KPC); K. pneumo BAA-1705 (KPC), antibiotic 10 μg/ml, 30 min, SDS lysis buffer + vortex, 1.5 h culture) | assay score (sensitive or resistant) (K. pneumo BAA-1705 (KPC); K. pneumoniae BAA-1705 (KPC)) | % diff (K. pneumo 13882; K. pneumo 13882, OD600 vs control) | OD600 (K. pneumo 13882; K. pneumo 13882, antibiotic 10 μg/ml, 30 min, SDS lysis buffer + vortex, 1.5 h culture) | assay score (sensitive or resistant) (K. pneumo 13882; K. pneumoniae 13882) | assay score (sensitive or resistant) (E. coli BAA-197 (ESBL)) | % diff (E. coli BAA-197 (ESBL); OD600 vs control) | OD600 (E. coli BAA-197 (ESBL); antibiotic 10 μg/ml, 30 min, SDS lysis buffer + vortex, 1.5 h culture) |
| --- | --- | --- | --- | --- | --- | --- | --- | --- | --- | --- | --- | --- | --- | --- | --- | --- |
| C[C@@H](O)[C@H]1C(=O)N2C(C(=O)O)=C(S[C@@H]3CN[C@H](C(=O)Nc4cccc(C(=O)O)c4)C3)[C@H](C)[C@H]12 [ertapenem] | detect susceptibility | detect susceptibility | detect resistance | 36% |  |  |  |  |  |  |  |  |  |  |  |  |
| CO/N=C(\C(=O)N[C@@H]1C(=O)N2C(C(=O)O)=C(COC(C)=O)CS[C@H]12)c1csc(N)n1 [cefotaxime] |  |  |  |  | 6.7% | 0.28 | resistant | 34.1% | 0.334 | resistant | 69.8% | 0.11 | sensitive | resistant | 19.1% | 0.292 |
